# Literature values, collected in publication PMC3019532 (Current radiopharmaceuticals, 2010).
# Assays:
# [1] = tested on: CA20948 rat pancreatic tumor cells; conditions: 1 h of incubation with 1 × 10^5 CA20948 cells; cited from earlier work
# [2] = rat, in vivo; cited from earlier work
substance,measurement,setting,value
"[^177Lu-DOTA^0,Tyr^3]octreotate [[^177Lu]DOTA-TATE]",dose internalized,[1],about 0.03%
same,"metabolism, form present in urine",[2],predominantly intact form
